From patent US10519140B2, “Indolin-2-one derivatives” (Hoffmann-La Roche Inc., priority 2015, dated 2019)

Key:
[1] = molecular target: T1, mouse ENT-1 transporter (Mus musculus, UniProt Q9JIM1); experiment: Adenosine transport activity (ENT1, [3H]-adenosine uptake inhibition); format: cell-based; settings: stable cells expressing mouse ENT-1; [2,8-3H]-adenosine 6 nM, 20 min
T1 construct: expressed in transfected cells
T1 sequence (Q9JIM1 1-460): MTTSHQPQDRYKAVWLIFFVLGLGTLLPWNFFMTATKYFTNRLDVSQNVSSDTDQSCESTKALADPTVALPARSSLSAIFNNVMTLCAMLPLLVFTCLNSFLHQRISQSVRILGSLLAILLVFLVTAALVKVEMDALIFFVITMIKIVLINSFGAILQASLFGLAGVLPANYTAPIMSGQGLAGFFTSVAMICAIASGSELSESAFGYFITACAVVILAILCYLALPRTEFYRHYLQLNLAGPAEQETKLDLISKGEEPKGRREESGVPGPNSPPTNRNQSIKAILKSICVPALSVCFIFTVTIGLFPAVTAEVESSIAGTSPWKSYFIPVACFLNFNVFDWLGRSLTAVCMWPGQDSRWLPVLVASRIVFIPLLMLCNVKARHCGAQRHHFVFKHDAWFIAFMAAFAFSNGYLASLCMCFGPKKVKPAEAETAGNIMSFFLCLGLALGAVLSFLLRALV
Method: To measure adenosine transport activity of ENT-1 mammalian cells, stable cells expressing the mouse ENT-1 transporter were plated on day 1 in 96-well culture plates at the density of 60,000 cells/well, in complete DMEM/F12 medium supplemented with glutamax, 10% FBS and 10 μg/ml puromycin. On day 2, the medium was aspirated and the cells were washed twice with uptake buffer (10 mM Hepes-Tris, pH 7.4 containing 150 mM NaCl, 1 mM CaCl2, 2.5 mM KCl, 2.5 mM MgSO4, 10 mM D-glucose) (UB). For inhibition experiments, cells were then incubated at RT with various concentrations of compounds with 1% DMSO final. Non-specific uptake was defined in the presence of 10 μM S-(4-Nitrobenzyl)-6-thioinosine (NBTI, Sigma Cat #N2255). A solution containing [2,8-^3H]-adenosine 6 nM (40 Ci/mmol, American Radiolabeled chemicals Inc, Cat #ART 0287A) was then immediately added to the wells. The plates were then incubated for 20 min with gentle shaking and the reaction was stopped by aspiration of the mixture and washing (three times) with ice-cold UB. The cells were lysed by the addition of scintillation liquid, shaken 3 hours and the radioactivity in the cells was estimated using a microplates scintillation counter (TopCount NXT, Packard).

[2] = system: mice; experiment: SmartCube behavioral signature similarity analysis; format: in vivo; settings: for discrimination rate vs Clozapine (1.0 mg/kg) / discrimination rate vs Olanzapine (0.25 mg/kg) / discrimination rate vs Risperidone (0.06 mg/kg): rate of 0.70 or lower = similar; for SmartCube behavioral signature class: i.p.
Description: In addition to the reversal of L-687,414 induced hyperlocomotion experiment as described above, some compounds of the present invention have been tested in SmartCube®, an automated system in which the behaviors of compound-treated mice in response to multiple challenges are captured by digital video and analyzed with computer algorithms (Roberds et al., Frontiers in Neuroscience, 2011, Vol. 5, Art. 103, 1-4; Vadim Alexandrov, Dani Brunner, Taleen Hanania, Emer Leahy Eur. J Pharmacol. 2015, 750, 82-99). In this way, the neuro-pharmacological effects of a test compound can be predicted by similarity to major classes of compounds, such as antipsychotics, anxiolytics and antidepressants. […] In addition to the above-mentioned experiments, it has been shown that some of the compounds of formula I are also ENT1 inhibitors (equilibrative nucleoside transporter 1 protein). Therapeutic potential of ENT1 inhibitors is directly or indirectly (via effects of adenosine and/or adenosine receptor modulation) described in the literature for the treatment of the following diseases: autoimmune disease (US 2006/253263), cancer (WO9857643), viral infections and fungal infections (WO2004060902), neurodegenerative disease, Parkinson's disease, Alzheimer's disease, Huntington's disease, amyotrophic lateral sclerosis, psychiatric diseases, substance abuse, ADHD, depression, epilepsy, anxiety, schizophrenia (WO0168105, EP 1252910, EP1612210, WO2009018275), autism spectrum disorders (Susan A. Masinoa, Masahito Kawamura Jr., Jessica L. Cotea, Rebecca B. Williams, David N. Ruskina, Neuropharmacology, 2013, 68, 116-121, pain (WO2009062990, WO2009064497), inflammation, asthma, (US 2007213296, Inflammation research, 2011, 60, 75-76), cardiovascular diseases (Trends in Pharmacological science, 2006, 27, 416-425), sleep disorders, (Psychopharmacology, 1987, 91, 434-439), and ophthalmology and inflammatory retinal diseases (World Journal of Diabetes, vol. 1, 12-18), epilepsy and neurodevelopmental disorders with co-morbid epilepsy (ENT1 Inhibition Attenuates Epileptic Seizure Severity Via Regulation of Glutamatergic Neurotransmission, Xu et al, Neuromol Med (2015) 17:1-11 and Epigenetic changes induced by adenosine augmentation therapy prevent epileptogenesis, Williams-Karneshy et al J Clin Invest. 2013 August; 123(8):3552-63.
As mentioned above, some compounds have been tested in SmartCube®, an analytical system developed by PsychoGenics Inc.
SmartCube® was used to compare the behavioral signature of a test compound to a database of behavioral signatures obtained from a large set of clinically approved reference drugs, grouped per indications. In this way, the neuro-pharmacological effects of a test compound can be predicted by similarity to major classes of compounds, such as antipsychotics, anxiolytics and antidepressants. This approach is ideally suited to screen collections of existing drugs or drug candidates with previously unknown neuropharmacology, which could expedite the development of new and unexpected treatments for psychiatric disorders.
Some compounds of the present invention were injected i.p. at different doses 15 minutes before the test. At least 8 mice were used in each treatment group. Digital videos of the subjects were processed with computer vision algorithms to extract over 2000 dependent measures including frequency and duration of many different behavioral states. The results of the classifications are presented as bar charts for each compound and dose (mg/kg), the Y-axis indicates the relative probability that the test compound will show efficacy in the specific CNS indication.
Compounds of the present invention show similar signatures to those of atypical antipsychotics. An independent analysis was performed on the unclassified data to determine the similarity of the example compounds to active doses of known atypical antipsychotics. […]

SMILES | IC50 [1] | discrimination rate vs Clozapine (1.0 mg/kg) ([2]; example at 3 mg/kg i.p.) | discrimination rate vs Olanzapine (0.25 mg/kg) ([2]; example at 3 mg/kg i.p.) | discrimination rate vs Risperidone (0.06 mg/kg) ([2]; example at 3 mg/kg i.p.) | SmartCube behavioral signature class [2] | discrimination rate vs Clozapine (1.0 mg/kg) ([2]; example at 5 mg/kg i.p.) | discrimination rate vs Olanzapine (0.25 mg/kg) ([2]; example at 5 mg/kg i.p.) | discrimination rate vs Risperidone (0.06 mg/kg) ([2]; example at 5 mg/kg i.p.)
Cc1ncc(-c2ccc3c(c2)N(c2cncc(N4CCCC4=O)n2)C(=O)C3(C)C)cn1 [Example 3, 3,3-Dimethyl-6-(2-methylpyrimidin-5-yl)-1-(6-(2-oxopyrrolidin-1-yl)pyrazin-2-yl)indolin-2-one] | 57 nM | – | – | – | similarity to atypical antipsychotics | 0.62 | 0.66 | 0.68
Cc1ncc(-c2ccc3c(c2)N(c2ccc4c(n2)N(C)C(=O)C4(C)C)C(=O)C3(C)C)cn1 [Example 39, 6-(3,3-Dimethyl-6-(2-methylpyrimidin-5-yl)-2-oxoindolin-1-yl)-1,3,3-trimethyl-1H-pyrrolo[2,3-b]pyridin-2(3H)-one] | 26.9 nM | 0.59 | 0.58 | 0.62 | similarity to atypical antipsychotics | – | – | –
Cc1ncc(-c2ccc3c(c2)N(c2cnc(-n4ccnc4C)cn2)C(=O)C3(C)C)cn1 [Example 50, 3,3-Dimethyl-1-(5-(2-methyl-1H-imidazol-1-yl)pyrazin-2-yl)-6-(2-methylpyrimidin-5-yl)indolin-2-one] | 31.1 nM | 0.52 | 0.51 | 0.63 | similarity to atypical antipsychotics | – | – | –
Cc1ncc(-c2ccc3c(c2)N(c2cnc4c(c2)C(C)(C)C(=O)N4C)C(=O)C3(C)C)cn1 [Example 54, 5-(3,3-Dimethyl-6-(2-methylpyrimidin-5-yl)-2-oxoindolin-1-yl)-1,3,3-trimethyl-1H-pyrrolo[2,3-b]pyridin-2(3H)-one] | 23.9 nM | 0.54 | 0.51 | 0.57 | similarity to atypical antipsychotics | – | – | –

The next lines start with results.

IC50 [1] | SMILES | discrimination rate vs Clozapine (1.0 mg/kg) ([2]; example at 3 mg/kg i.p.) | discrimination rate vs Olanzapine (0.25 mg/kg) ([2]; example at 3 mg/kg i.p.) | discrimination rate vs Risperidone (0.06 mg/kg) ([2]; example at 3 mg/kg i.p.) | SmartCube behavioral signature class [2] | discrimination rate vs Clozapine (1.0 mg/kg) ([2]; example at 5 mg/kg i.p.) | discrimination rate vs Olanzapine (0.25 mg/kg) ([2]; example at 5 mg/kg i.p.) | discrimination rate vs Risperidone (0.06 mg/kg) ([2]; example at 5 mg/kg i.p.)
39 nM | Cc1ncc(-c2ccc3c(c2)N(c2cncc(N4CCOCC4)n2)C(=O)C3(C)C)cn1 [Example 1, 3,3-Dimethyl-6-(2-methylpyrimidin-5-yl)-1-(6-morpholinopyrazin-2-yl)indolin-2-one] | 0.56 | 0.59 | 0.83 | similarity to atypical antipsychotics | – | – | –
26 nM | Cc1ncc(-c2ccc3c(c2)N(c2cncc(N4CCOC4=O)n2)C(=O)C3(C)C)cn1 [Example 15, 3-(6-(3,3-Dimethyl-6-(2-methylpyrimidin-5-yl)-2-oxoindolin-1-yl)pyrazin-2-yl)oxazolidin-2-one] | 0.57 | 0.56 | 0.59 | similarity to atypical antipsychotics | – | – | –
97 nM | Cc1ncc(-c2ccc3c(c2)N(c2cnc(C)c(N4CCOCC4)n2)C(=O)C3(C)C)cn1 [Example 18, 3,3-Dimethyl-1-(5-methyl-6-morpholinopyrazin-2-yl)-6-(2-methylpyrimidin-5-yl)indolin-2-one] | 0.61 | 0.62 | 0.73 | similarity to atypical antipsychotics | – | – | –
16.5 nM | Cc1ncc(-c2ccc3c(c2)N(c2cnc(C)c(N4CCOC4=O)n2)C(=O)C3(C)C)cn1 [Example 20, 3-(6-(3,3-Dimethyl-6-(2-methylpyrimidin-5-yl)-2-oxoindolin-1-yl)-3-methylpyrazin-2-yl)oxazolidin-2-one] | 0.53 | 0.51 | 0.57 | similarity to atypical antipsychotics | – | – | –
